Assay results: US9422545B2 (priority 2013, dated 2016)

Assays:
[1] = test system: virulent C. burnetii; set-up: species or system Coxiella burnetii
[2] = test system: 1E4; assay type: binding, mouse

EDTA
number of dead bacteria [1]: significantly higher numbers of dead bacteria

SPPWHKHELHRK [m1E44]
inhibition index (A490 without PI-A490 with PI/A490 without PI) [2]: highest inhibition index
